The test system of the assay is Primary cortical neurons. The experiment in a line: DHA peroxidation in primary cortical neurons, MDA levels measured by LC-MS. In kind it is cell-based, Sprague-Dawley rat. As to conditions: for MDA concentration (DHA peroxidation): by LCMS/MS. On the procedure: Primary cortical neurons from postnatal day 3-5 (P3-P5) Sprague-Dawley rat pup's brain were pretreated with/without natural vitamin E in the form of RRR-a-tocopherol (15 μM or 45 μM), and/or lutein (0.32 nM or 0.5 nM) individually and in combination for 12 hours. (Note that μM is used to refer to a micromolar concentration and nM is used to refer to a nanomolar concentration and concentrations refer to those reached in the test tubes containing the cortical neurons.) After 12 hours DHA (90 μM) was added for an additional 12 hours. After 12 hours samples were washed in PS and neurons were lysed. Peroxides generated from DHA and incorporated into the neuronal cell membrane were assessed by measuring the MDA levels using liquid chromatography-mass spectometry (LC-MS) method.

With `CC/C=C\C/C=C\C/C=C\C/C=C\C/C=C\C/C=C\CCC(=O)O` [DHA, docosahexaenoic acid], the “MDA concentration (DHA peroxidation)” value (DHA 90 μM for 12 hours, without either RRR alpha tocopherol or lutein) is on record as “about 110”.

Turning to `Cc1c(C)c2c(c(C)c1O)CC[C@@](C)(CCC[C@H](C)CCC[C@H](C)CCCC(C)C)O2` [RRR alpha tocopherol, RRR-alpha tocopherol], the “MDA concentration (DHA peroxidation)” value runs as follows: (15 μM RRR alpha tocopherol pretreatment 12 hours, then DHA 90 μM 12 hours) “about 75%”; (45 μM RRR alpha tocopherol pretreatment 12 hours, then DHA 90 μM 12 hours, p<0.001) “about 57%”. For the molecule `CC1=C[C@H](O)CC(C)(C)[C@H]1/C=C/C(C)=C/C=C/C(C)=C/C=C/C=C(C)/C=C/C=C(C)/C=C/C1=C(C)C[C@@H](O)CC1(C)C` [lutein], the “effect on retarding DHA peroxidation” value (lutein alone, without RRR alpha tocopherol, then DHA 90 μM) is reported as “essentially no effect”.

Source of the values: patent US20160279095A1, “USE OF NUTRITIONAL COMPOSITIONS INCLUDING NATURAL VITAMIN E, AND POLYUNSATURATED FATTY ACID” (ABBOTT LABORATORIES, priority 2013, published 2016).
